Assay [1] deals with T1, Serotonin 3 (5-HT3) receptor (Rattus norvegicus) (UniProt P35563+Q9JJ16). The assay is described as follows: Tested for 5-HT 3 receptor antagonist potency by ability to inhibit the reflex bradycardia, the Bezold-Jarisch reflex in the rat. The assay is classed as functional.
The target in assay [2] is 5-hydroxytryptamine receptor 4 (Cavia porcellus) (UniProt O70528). The assay is described as follows: Relative ability to increase cholinergically mediated contractions in isolated ileum of guinea pig. The assay is classed as functional, tissue-based.
5-hydroxytryptamine receptor 4 (Cavia porcellus), sequence (O70528 whole entry): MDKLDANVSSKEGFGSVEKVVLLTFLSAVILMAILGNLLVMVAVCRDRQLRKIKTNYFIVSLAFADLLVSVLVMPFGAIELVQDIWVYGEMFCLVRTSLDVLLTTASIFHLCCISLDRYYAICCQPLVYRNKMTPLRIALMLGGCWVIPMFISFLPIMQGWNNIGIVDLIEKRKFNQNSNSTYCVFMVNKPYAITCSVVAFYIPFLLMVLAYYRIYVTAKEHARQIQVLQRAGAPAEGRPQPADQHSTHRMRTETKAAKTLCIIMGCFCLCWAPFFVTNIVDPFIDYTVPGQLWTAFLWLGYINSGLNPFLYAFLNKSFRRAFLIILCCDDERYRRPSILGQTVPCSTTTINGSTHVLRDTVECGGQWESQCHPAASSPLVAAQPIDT
The target of assay [3] is 5-hydroxytryptamine receptor 4 (Rattus norvegicus) (UniProt Q62758). The assay is described as follows: Stimulatory activity of intragastric pressure was tested in the rat. It is filed as functional.
5-hydroxytryptamine receptor 4 (Rattus norvegicus), sequence (Q62758 whole entry): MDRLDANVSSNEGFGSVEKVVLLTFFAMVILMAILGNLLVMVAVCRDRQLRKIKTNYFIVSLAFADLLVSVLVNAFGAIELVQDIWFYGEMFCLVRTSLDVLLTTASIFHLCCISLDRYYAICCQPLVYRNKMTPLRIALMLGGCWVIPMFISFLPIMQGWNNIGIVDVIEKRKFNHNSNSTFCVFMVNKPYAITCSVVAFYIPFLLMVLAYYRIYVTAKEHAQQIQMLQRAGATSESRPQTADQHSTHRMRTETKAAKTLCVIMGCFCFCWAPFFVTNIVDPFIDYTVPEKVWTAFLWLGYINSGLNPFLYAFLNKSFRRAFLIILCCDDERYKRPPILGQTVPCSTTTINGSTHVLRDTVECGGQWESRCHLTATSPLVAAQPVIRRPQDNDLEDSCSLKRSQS
A further assay is filed under the species Canis familiaris. The assay is described as follows: Tested against rhythmic contractile activity in a Heidenhain pouch dog preparation. It is filed as functional, Canis lupus familiaris.
For assay [4], the target named is T1, Serotonin 3 (5-HT3) receptor (Rattus norvegicus). The assay is described as follows: Compound was tested for its 5-HT 3 receptor antagonist potency by their ability to inhibit the reflex bradycardia, the Bezold-Jarisch reflex in the rat. It is filed as functional.

Converted amounts (≈) assume the structure as drawn.

The source of these data is ChEMBL document CHEMBL1126614, “Substituted benzamides with conformationally restricted side chains. 5. Azabicyclo[x.y.z] derivatives as 5-HT4 receptor agonists and gastric motility stimulants” (1993).

Consider `COc1cc(N)c(Cl)cc1C(=O)NC1CC2CCCN(C2)C1` (configuration not stated), for which the ID50 in assay [1] was 0.0055 mg/kg. The EC20 – broadly, the point of the concentration-response curve where the effect stands at 20% – in assay [2] was found to be 0.002 mg/L (≈ 0.00618 µM). Besides, the ED50 (usually the midpoint of the dose-response relation) in assay [3] was above 1 mg/kg. Also, the LAD in the assay filed under Canis familiaris was above 0.1 mg/kg. Take `COc1cc(N)c(Cl)cc1C(=O)NC12CCC(CC1)NC2`: the ID50 in assay [4] worked out at 0.086 mg/kg. In the assay listed under Canis familiaris, this compound showed an LAD of 0.01 mg/kg. On to `COc1cc(N)c(Cl)cc1C(=O)NC1CCN2CCSC1C2` (configuration not stated), for which, in assay [3], the ED50 was determined as 0.5 mg/kg. In the assay filed under Canis familiaris, this compound came in with an LAD of 0.01 mg/kg.

In assay [2], `COc1cc(N)c(Cl)cc1C(=O)NC1CCNC(C)C12CCC2C` (configuration not stated) had an EC20 of 0.056 mg/L (≈ 0.159 µM). This compound also came in with an LAD in the assay listed under Canis familiaris of 0.05 mg/kg.

`COc1cc(N)c(Cl)cc1C(=O)N[C@H]1CCN2CCC[C@@H]1C2` [listing 1 of 2 here]: in the assay filed under Canis familiaris, the LAD is 0.01 mg/kg. `COc1cc(N)c(Cl)cc1C(=O)NC1CC(C)NCC12CCC2` (configuration not stated) had an EC20 in assay [2] of 0.15 mg/L (≈ 0.444 µM). In the assay listed under Canis familiaris, the LAD was 0.25 mg/kg. On the same counts, the results for `COc1cc(N)c(Cl)cc1C(=O)NC1CCNCC12CCC2C` (configuration not stated) are 0.018 mg/L (≈ 0.0533 µM) and 0.05 mg/kg. The compound `COc1cc(N)c(Cl)cc1C(=O)N[C@H]1CCN2CCC[C@@H]1C2` [listing 2 of 2 here] had an ID50 in assay [1] of 0.0042 mg/kg. The 20% effect level in assay [2] (EC20) was put at 0.022 mg/L (≈ 0.0679 µM). Compound `COc1cc(N)c(Cl)cc1C(=O)N[C@H]1CCN2CCC[C@@H]1C2` (relative stereo) [listing 1 of 2 here] displayed an LAD in the assay listed under Canis familiaris of 0.05 mg/kg. `COc1cc(N)c(Cl)cc1C(=O)N[C@H]1CCN2CCC[C@@H]1C2` (relative stereo) [listing 2 of 2 here] registered an ID50 in assay [1] above 0.1 mg/kg. Also, the EC20 in assay [2] is 0.087 mg/L (≈ 0.269 µM). In the case of `COc1cc(N)c(Cl)cc1C(=O)NC1CCN2CCOC1C2` (single isomer, unassigned; (+)) [listing 1 of 2 here], in the assay filed under Canis familiaris, the LAD worked out at 0.01 mg/kg. `COc1cc(N)c(Cl)cc1C(=O)NC1CCN2CCOC1C2` (single isomer, unassigned; (+)) [listing 2 of 2 here] came in with an ID50 in assay [1] of 0.018 mg/kg. The compound further yielded an ED50 in assay [3] of 0.1 mg/kg. `COc1cc(N)c(Cl)cc1C(=O)NC1CCN2CCCC1C2` (single isomer, unassigned; (-)) registered an ID50 in assay [1] of 0.0039 mg/kg. Moreover, in assay [2], the EC20 amounted to 0.032 mg/L (≈ 0.0988 µM). In assay [1], `COc1cc(N)c(Cl)cc1C(=O)NC1CCN2CCOC1C2` (single isomer, unassigned; (-)) registered an ID50 of 0.032 mg/kg. This compound had an ED50 in assay [3] of 0.1 mg/kg.

`COc1cc(N)c(Cl)cc1C(=O)NC1CCN2CCCC1C2` (stereo in doubt) came in with an ID50 in assay [1] of 0.0033 mg/kg. In addition, in assay [2], the 20% effect level (EC20) was put at 0.007 mg/L (≈ 0.0216 µM). In assay [3], this compound came in with an ED50 of 0.1 mg/kg. In assay [1], `COc1cc(N)c(Cl)cc1C(=O)NC1CCN2CCOC1C2` (stereo in doubt) showed an ID50 of 0.019 mg/kg. This compound also had an ED50 in assay [3] of 0.1 mg/kg.

Take `COc1cc(N)c(Cl)cc1C(=O)NC1CCN2CCCC1C2` (stereo in doubt) [RENZAPRIDE]: the LAD in the assay filed under Canis familiaris turned out to be 0.01 mg/kg. `COc1cc(N)c(Cl)cc1C(=O)NC1CCN2CCCC1C2` (stereo in doubt; 5d) returned an ID50 in assay [1] of 0.03 mg/kg. This compound returned an EC20 in assay [2] of 0.0004 mg/L (≈ 0.00124 µM). In addition, it took a dose of 0.1 mg/kg to reach the 50% effect level in assay [3] (ED50). The compound `COc1cc(N)c(Cl)cc1C(=O)NC1CCN2CCCC1C2` (stereo in doubt; 5d) [RENZAPRIDE] came in with an LAD in the assay listed under Canis familiaris of 0.005 mg/kg.

`COc1cc(N)c(Cl)cc1C(=O)NC1CN2CCCC1C2` (stereo in doubt; endo) [listing 1 of 2 here] came in with an LAD in the assay filed under Canis familiaris of 0.01 mg/kg.

Turning to `COc1cc(N)c(Cl)cc1C(=O)NC1C2CC3CCN(C2)CC1C3` (stereo in doubt; endo) [listing 1 of 2 here], the LAD in the assay listed under Canis familiaris was 0.01 mg/kg.

`COc1cc(N)c(Cl)cc1C(=O)NC1C2CC3CCN(C2)CC1C3` (stereo in doubt; endo) [listing 2 of 2 here]: the ID50 in assay [1] worked out at 0.0034 mg/kg. In turn, `COc1cc(N)c(Cl)cc1C(=O)NC1CN2CCCC1C2` (stereo in doubt; endo) [listing 2 of 2 here] yielded an ID50 in assay [1] of 0.003 mg/kg. In addition, the EC20 in assay [2] was 0.017 mg/L (≈ 0.0549 µM). Further, the median effective dose (ED50) in assay [3] is 0.06 mg/kg. In the assay listed under Canis familiaris, `COc1cc(N)c(Cl)cc1C(=O)NC1CN2CCCC1C2` (stereo in doubt; exo) [listing 1 of 2 here] had an LAD of 0.05 mg/kg. On the same count and under the same terms, in the case of `COc1cc(N)c(Cl)cc1C(=O)NC1C2CC3CCN(C2)CC1C3` (stereo in doubt; exo) [listing 1 of 2 here] it was 0.05 mg/kg.

`COc1cc(N)c(Cl)cc1C(=O)NC1C2CC3CCN(C2)CC1C3` (stereo in doubt; exo) [listing 2 of 2 here] had an ID50 in assay [1] of 0.059 mg/kg. As for `COc1cc(N)c(Cl)cc1C(=O)NC1CN2CCCC1C2` (stereo in doubt; exo) [listing 2 of 2 here], the ID50 in assay [1] was 0.045 mg/kg. In assay [2], this compound showed an EC20 of 0.047 mg/L (≈ 0.152 µM).

As to `CCN(CC)CCNC(=O)c1cc(Cl)c(N)cc1OC` [METOCLOPRAMIDE], the ID50 in assay [1] came out at 0.5 mg/kg. This compound also yielded an EC20 in assay [2] of 0.12 mg/L (≈ 0.4 µM). In addition, the 50% effect level in assay [3] (ED50) was put at a dose of 1 mg/kg. The compound also returned an LAD in the assay listed under Canis familiaris of 0.25 mg/kg.
